# Results published in ChEMBL document CHEMBL1134183, “First tricyclic oximino derivatives as 5-HT3 ligands” (Bioorg Med Chem Lett, 2001).
# Key:
# [1] = target: Serotonin 3 (5-HT3) receptor; assay: Binding affinity towards 5-hydroxytryptamine 3 receptor; type: protein-complex assay
# [2] = target: 5-hydroxytryptamine receptor 7 (Homo sapiens) (UniProt P34969); assay: Percentage of displacement at 5-hydroxytryptamine 7 receptor at 10e-8 M
# [3] = Compound was tested for binding affinity against 5-HT1 receptor
# [4] = target: 5-hydroxytryptamine receptor 6 (Homo sapiens) (UniProt P50406); assay: Percentage of displacement at 5-hydroxytryptamine 6 receptor at 10e-8 M
# [5] = target: T1, Serotonin 3 (5-HT3) receptor (Homo sapiens) (UniProt P46098+A5X5Y0+O95264+Q70Z44+Q8WXA8); assay: Compound was tested for agonistic activity against 5-hydroxytryptamine 3 receptor on guinea colon at a concentration 0.01 uM; type: functional, tissue-based; details: Cavia porcellus, target entry is the homologue from another species
# [6] = target: T1, Serotonin 3 (5-HT3) receptor (Homo sapiens); assay: Percent of control response to 5-HT3 antagonistic activity on guinea colon at a concentration 1 uM; type: functional, tissue-based; details: Cavia porcellus, target entry is the homologue from another species
# [7] = target: Serotonin 2 (5-HT2) receptor (Homo sapiens, UniProt P41595+P28223+P28335); assay: Compound was tested for binding affinity against 5-hydroxytryptamine 2 receptor; type: protein assay
# [8] = target: Serotonin 3 (5-HT3) receptor; assay: Compound was tested for binding affinity towards 5-hydroxytryptamine 3 receptor; type: protein-complex assay
# [9] = target: T2, 5-hydroxytryptamine receptor 1A (Homo sapiens, UniProt P08908); assay: Compound was tested for binding affinity against 5-hydroxytryptamine 1A receptor
# T2 sequence (P08908 whole entry): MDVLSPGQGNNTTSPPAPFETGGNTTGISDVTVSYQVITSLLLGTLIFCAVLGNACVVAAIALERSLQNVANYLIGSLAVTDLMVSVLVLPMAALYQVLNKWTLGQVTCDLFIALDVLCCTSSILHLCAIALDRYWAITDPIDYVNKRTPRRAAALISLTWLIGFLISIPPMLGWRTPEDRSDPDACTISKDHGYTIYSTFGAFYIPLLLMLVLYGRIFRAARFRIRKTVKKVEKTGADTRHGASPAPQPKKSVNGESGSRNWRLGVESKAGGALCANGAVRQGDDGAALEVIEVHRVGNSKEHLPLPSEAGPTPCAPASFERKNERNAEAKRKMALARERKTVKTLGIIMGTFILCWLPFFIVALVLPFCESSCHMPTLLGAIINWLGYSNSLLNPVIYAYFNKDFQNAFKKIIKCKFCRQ
# [10] = target: Sodium-dependent dopamine transporter (Homo sapiens) (UniProt Q01959); assay: Compound was tested for binding affinity against dopaminergic uptake
# [11] = target: Sodium-dependent noradrenaline transporter (Homo sapiens) (UniProt P23975); assay: Compound was tested for binding affinity against noradrenergic uptake
# [12] = target: 5-hydroxytryptamine receptor 1B (Homo sapiens, UniProt P28222); assay: Compound was tested for binding affinity against 5-hydroxytryptamine 1B receptor
# [13] = target: 5-hydroxytryptamine receptor 4 (Homo sapiens, UniProt Q13639); assay: Compound was tested for agonistic activity against 5-hydroxytryptamine 4 receptor on guinea colon at a concentration 0.1 uM; type: functional, tissue-based
# [14] = target: 5-hydroxytryptamine receptor 1D (Homo sapiens, UniProt P28221); assay: Compound was tested for binding affinity against 5-hydroxytryptamine 1D receptor
# [15] = target: T1, Serotonin 3 (5-HT3) receptor (Homo sapiens); assay: Percent of control response to 5-HT3 agonistic activity on guinea colon at a concentration 1 uM; type: functional, tissue-based; details: Cavia porcellus, target entry is the homologue from another species
# [16] = target: T3, 5-hydroxytryptamine receptor 2C (Homo sapiens, UniProt P28335); assay: Compound was tested for binding affinity against 5-hydroxytryptamine 2C receptor
# T3 sequence (P28335 whole entry): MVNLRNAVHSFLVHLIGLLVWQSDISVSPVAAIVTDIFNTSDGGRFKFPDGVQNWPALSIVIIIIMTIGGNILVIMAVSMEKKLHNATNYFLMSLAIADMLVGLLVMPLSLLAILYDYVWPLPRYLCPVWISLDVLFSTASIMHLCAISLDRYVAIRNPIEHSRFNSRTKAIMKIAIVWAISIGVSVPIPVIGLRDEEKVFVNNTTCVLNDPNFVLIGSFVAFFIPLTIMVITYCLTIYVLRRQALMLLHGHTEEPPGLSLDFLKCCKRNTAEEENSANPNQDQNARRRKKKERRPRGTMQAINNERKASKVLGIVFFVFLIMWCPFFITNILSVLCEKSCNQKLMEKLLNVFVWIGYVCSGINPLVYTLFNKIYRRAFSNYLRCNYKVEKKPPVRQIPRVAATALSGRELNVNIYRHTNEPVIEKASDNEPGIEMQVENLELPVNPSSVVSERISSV
# [17] = target: T1, Serotonin 3 (5-HT3) receptor (Homo sapiens); assay: Percent of control response to 5-HT3 agonistic activity on guinea colon at a concentration 0.1 uM; type: functional, tissue-based; details: Cavia porcellus, target entry is the homologue from another species
# [18] = target: T1, Serotonin 3 (5-HT3) receptor (Homo sapiens); assay: Percent of control response to 5-HT3 agonistic activity on guinea colon at a concentration 0.01 uM; type: functional, tissue-based; details: Cavia porcellus, target entry is the homologue from another species
# [19] = target: Serotonin 3 (5-HT3) receptor; assay: Compound was tested for agonistic activity against 5-HT uptake; type: functional
# [20] = target: T1, Serotonin 3 (5-HT3) receptor (Homo sapiens); assay: Percent of control response to 5-HT3 agonistic activity on guinea colon at a concentration 1 uM in the presence of 30 uM MDL 72222; type: functional, tissue-based; details: Cavia porcellus, target entry is the homologue from another species
# [21] = target: T1, Serotonin 3 (5-HT3) receptor (Homo sapiens); assay: Percent of control response to 5-HT3 antagonistic activity on guinea colon at a concentration 0.01 uM; type: functional, tissue-based; details: Cavia porcellus, target entry is the homologue from another species
# [22] = target: T1, Serotonin 3 (5-HT3) receptor (Homo sapiens); assay: Compound was tested for agonistic activity against 5-hydroxytryptamine 3 receptor on guinea pig colon at a concentration of 1 uM; type: functional, tissue-based; details: Cavia porcellus, target entry is the homologue from another species
# [23] = target: T1, Serotonin 3 (5-HT3) receptor (Homo sapiens); assay: Compound was tested for agonistic activity against 5-hydroxytryptamine 3 receptor on guinea pig colon at a concentration of 10 uM in the presence of 30 uM MDL 72222; type: functional, tissue-based; details: Cavia porcellus, target entry is the homologue from another species
# [24] = target: T1, Serotonin 3 (5-HT3) receptor (Homo sapiens); assay: Compound was tested for agonistic activity against 5-hydroxytryptamine 3 receptor on guinea pig colon at a concentration of 3 uM; type: functional, tissue-based; details: Cavia porcellus, target entry is the homologue from another species
# [25] = target: T1, Serotonin 3 (5-HT3) receptor (Homo sapiens); assay: Compound was tested for agonistic activity against 5-hydroxytryptamine 3 receptor on guinea pig colon at a concentration of 10 uM; type: functional, tissue-based; details: Cavia porcellus, target entry is the homologue from another species
# Sequence of Sodium-dependent noradrenaline transporter (Homo sapiens) (P23975 whole entry): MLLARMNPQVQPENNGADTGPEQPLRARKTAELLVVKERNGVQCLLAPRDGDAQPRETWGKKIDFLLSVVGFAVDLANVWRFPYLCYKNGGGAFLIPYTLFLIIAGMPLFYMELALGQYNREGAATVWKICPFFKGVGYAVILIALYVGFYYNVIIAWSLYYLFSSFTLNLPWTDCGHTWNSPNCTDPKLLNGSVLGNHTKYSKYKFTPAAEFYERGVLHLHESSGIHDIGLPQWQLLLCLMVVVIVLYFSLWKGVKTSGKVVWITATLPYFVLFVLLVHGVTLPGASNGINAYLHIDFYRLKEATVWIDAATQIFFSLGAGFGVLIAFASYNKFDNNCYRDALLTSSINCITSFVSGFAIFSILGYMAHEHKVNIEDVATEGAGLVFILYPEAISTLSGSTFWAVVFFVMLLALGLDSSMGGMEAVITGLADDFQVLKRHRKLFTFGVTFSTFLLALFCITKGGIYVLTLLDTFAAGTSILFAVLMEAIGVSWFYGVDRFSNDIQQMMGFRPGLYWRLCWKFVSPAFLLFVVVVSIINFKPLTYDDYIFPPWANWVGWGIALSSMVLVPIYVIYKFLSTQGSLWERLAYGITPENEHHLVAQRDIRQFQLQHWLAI
# Sequence of 5-hydroxytryptamine receptor 1D (P28221 whole entry): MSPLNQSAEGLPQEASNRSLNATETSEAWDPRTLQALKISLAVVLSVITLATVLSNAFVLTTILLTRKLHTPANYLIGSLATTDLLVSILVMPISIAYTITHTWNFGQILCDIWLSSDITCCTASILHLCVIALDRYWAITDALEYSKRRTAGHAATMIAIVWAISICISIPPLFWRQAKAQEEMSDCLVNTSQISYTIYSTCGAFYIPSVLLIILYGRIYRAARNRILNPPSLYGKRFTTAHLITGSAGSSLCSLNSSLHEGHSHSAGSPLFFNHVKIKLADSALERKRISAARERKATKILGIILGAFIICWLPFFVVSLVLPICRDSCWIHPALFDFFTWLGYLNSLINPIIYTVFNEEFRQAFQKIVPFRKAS
# Sequence of Sodium-dependent dopamine transporter (Homo sapiens) (Q01959 whole entry): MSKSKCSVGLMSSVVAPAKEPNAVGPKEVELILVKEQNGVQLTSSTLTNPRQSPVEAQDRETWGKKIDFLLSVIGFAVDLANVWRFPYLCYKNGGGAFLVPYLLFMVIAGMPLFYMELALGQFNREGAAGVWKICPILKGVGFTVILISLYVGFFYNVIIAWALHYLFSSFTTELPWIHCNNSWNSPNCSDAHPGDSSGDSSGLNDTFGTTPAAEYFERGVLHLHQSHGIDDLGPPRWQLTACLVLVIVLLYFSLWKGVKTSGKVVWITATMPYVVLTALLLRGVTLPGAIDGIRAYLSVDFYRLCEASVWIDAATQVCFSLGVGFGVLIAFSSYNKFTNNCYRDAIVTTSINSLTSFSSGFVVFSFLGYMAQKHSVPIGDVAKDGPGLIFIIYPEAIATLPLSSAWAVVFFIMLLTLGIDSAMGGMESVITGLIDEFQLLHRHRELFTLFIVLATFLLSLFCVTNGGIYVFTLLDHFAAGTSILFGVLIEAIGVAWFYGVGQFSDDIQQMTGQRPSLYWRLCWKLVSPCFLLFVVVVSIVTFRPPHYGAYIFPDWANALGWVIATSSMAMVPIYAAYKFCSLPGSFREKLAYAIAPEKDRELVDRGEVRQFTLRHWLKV
# Sequence of 5-hydroxytryptamine receptor 7 (Homo sapiens) (P34969 whole entry): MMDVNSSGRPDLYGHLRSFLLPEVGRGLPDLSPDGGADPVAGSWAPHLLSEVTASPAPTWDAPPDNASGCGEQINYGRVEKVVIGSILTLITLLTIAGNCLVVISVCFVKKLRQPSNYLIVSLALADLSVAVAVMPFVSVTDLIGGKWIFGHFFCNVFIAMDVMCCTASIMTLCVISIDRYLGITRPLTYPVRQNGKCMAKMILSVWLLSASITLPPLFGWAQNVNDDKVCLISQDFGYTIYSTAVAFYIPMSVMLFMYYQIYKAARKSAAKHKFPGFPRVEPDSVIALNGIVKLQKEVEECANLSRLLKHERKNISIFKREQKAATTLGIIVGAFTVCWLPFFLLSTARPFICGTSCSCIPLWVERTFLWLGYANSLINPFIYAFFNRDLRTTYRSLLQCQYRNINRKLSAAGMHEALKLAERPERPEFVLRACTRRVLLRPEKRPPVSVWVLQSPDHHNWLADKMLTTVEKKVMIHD
# Sequence of 5-hydroxytryptamine receptor 1B (P28222 whole entry): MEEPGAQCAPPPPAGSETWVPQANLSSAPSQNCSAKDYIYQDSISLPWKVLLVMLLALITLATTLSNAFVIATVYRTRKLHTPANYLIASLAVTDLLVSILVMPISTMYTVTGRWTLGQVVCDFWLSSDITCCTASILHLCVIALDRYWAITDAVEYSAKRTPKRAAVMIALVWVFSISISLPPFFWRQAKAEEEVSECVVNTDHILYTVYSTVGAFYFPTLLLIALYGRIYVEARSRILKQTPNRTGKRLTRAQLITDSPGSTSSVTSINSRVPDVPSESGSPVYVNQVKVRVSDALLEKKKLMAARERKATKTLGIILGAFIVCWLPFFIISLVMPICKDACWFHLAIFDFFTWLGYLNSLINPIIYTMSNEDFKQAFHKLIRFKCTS
# Sequence of 5-hydroxytryptamine receptor 4 (Q13639 whole entry): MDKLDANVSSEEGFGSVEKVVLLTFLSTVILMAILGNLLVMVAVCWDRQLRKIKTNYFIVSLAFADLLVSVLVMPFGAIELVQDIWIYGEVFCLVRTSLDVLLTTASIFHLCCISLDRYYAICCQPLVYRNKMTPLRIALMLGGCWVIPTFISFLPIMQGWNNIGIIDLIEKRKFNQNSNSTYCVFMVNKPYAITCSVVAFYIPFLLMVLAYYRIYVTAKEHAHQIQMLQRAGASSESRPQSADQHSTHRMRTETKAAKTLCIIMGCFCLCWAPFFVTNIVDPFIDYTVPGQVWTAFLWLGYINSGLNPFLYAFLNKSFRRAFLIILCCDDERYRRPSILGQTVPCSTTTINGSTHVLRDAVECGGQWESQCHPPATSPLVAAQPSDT
# Sequence of 5-hydroxytryptamine receptor 6 (Homo sapiens) (P50406 whole entry): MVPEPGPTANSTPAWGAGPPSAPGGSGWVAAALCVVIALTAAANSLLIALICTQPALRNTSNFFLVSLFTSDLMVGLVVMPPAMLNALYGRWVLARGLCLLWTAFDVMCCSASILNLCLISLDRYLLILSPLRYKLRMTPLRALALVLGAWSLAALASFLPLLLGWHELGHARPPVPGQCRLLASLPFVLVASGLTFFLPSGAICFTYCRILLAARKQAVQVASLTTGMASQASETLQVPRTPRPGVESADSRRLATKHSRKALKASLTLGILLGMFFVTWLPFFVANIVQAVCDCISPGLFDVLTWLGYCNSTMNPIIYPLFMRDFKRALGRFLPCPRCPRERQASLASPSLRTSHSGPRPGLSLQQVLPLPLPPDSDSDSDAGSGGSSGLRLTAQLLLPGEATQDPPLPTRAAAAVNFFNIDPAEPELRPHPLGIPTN
smiles,measurement,setting,value
CCN(CC)CCO/N=C1\c2sccc2-n2cccc21,-Log IC50,[1],8.3
Cc1ccc(-c2csc3c2-n2cccc2/C3=N/OCCN)cc1,-Log IC50,[1],6.66
CN1CCCC1CCO/N=C1\c2ccccc2-n2cccc21 (configuration not stated),-Log IC50,[1],7.85
c1ccc(CN2CCN(c3nc4sccc4n4cccc34)CC2)cc1,-Log IC50,[1],8.34
CN(C)CCO/N=C1\c2sccc2-n2cccc21,-Log IC50,[1],8.46
Cc1csc2c1-n1cccc1/C2=N/OCCN(C)C,Displacement,[2],0%
same,-Log IC50,[3],5.66
same,Displacement,[4],0%
same,Activity,[5],0
same,Activity,[6],16
same,-Log IC50,[7],5.5
same,-Log IC50,[8],9.1
same,IC50,[9],5750 nM
same,Affinity,[10],5.28%
same,Affinity,[11],6%
same,IC50,[12],2690 nM
same,IC50,[13],871 nM
same,IC50,[14],479 nM
same,Activity,[15],0
same,IC50,[16],2140 nM
same,Activity,[17],37
same,Activity,[18],0
same,-Log IC50,[19],6.92
same,Activity,[20],73
same,Activity,[21],64
NCCO/N=C1\c2ccccc2-n2cccc21,-Log IC50,[1],6.66
Cc1csc2c1-n1cccc1/C2=N/OCCN,-Log IC50,[1],7.62
CN(C)CCO/N=C1\c2ccccc2-n2cccc21,-Log IC50,[1],8.24
NCCc1c[nH]c2ccc(O)cc12,Agonist activity,[22],41
same,Agonist activity,[23],0
same,Agonist activity,[24],76
same,Agonist activity,[25],90
Cc1csc2c1-n1cccc1/C2=N/OCCCN(C)C,-Log IC50,[1],8.6
Cc1csc2c1-n1cccc1/C2=N/OCCCN(C)Cc1ccccc1,-Log IC50,[1],7.47
CN(C)CCO/N=C1\c2cc(Cl)ccc2-n2cccc21,-Log IC50,[1],7.06
CN(CCO/N=C1\c2sccc2-n2cccc21)Cc1ccccc1,-Log IC50,[1],7.63
Cc1csc2c1-n1cccc1/C2=N/OCCN(C)Cc1ccccc1,-Log IC50,[1],8.16
Cc1csc2c1-n1cccc1/C2=N/OCCNCc1ccccc1,-Log IC50,[1],7.54
Cc1csc2c1-n1cccc1/C2=N/OCCC1CCCN1C (configuration not stated),-Log IC50,[1],8.7
Cc1csc2c1-n1cccc1/C2=N/OCCN1CCCCC1,-Log IC50,[1],8.4
c1ccc(CNCCO/N=C2\c3ccccc3-n3cccc32)cc1,-Log IC50,[1],6.54
Cc1csc2c1-n1cccc1/C2=N/OCCN1CCCC1,-Log IC50,[1],8.7
